Results on 33 molecules are retold here after patent publication US20140350014A1, “COMPOUNDS FOR INHIBITING THE INTERACTION OF BCL2 WITH BINDING PARTNERS” (NOVARTIS AG, priority 2011, published 2014).

Assay [1] has as its target BCL-2 binding to BAD peptide (Homo sapiens, UniProt P10415). As to the kind of experiment: BCL2 SPR solution inhibition assay, BAD peptide surface (Biacore A100). The following applies: read-out: BCL2_SPR IC50 BAD. The source says: (§1) 33The present method includes utility of a Surface plasmon resonance (SPR)-based biosensor (Bia34core™′ GE Healthcare, Uppsala, Sweden) to characterize BCL-2 inhibitors. 35
(§2) 36Biacore™ utilizes the phenomenon of surface plasmon resonance (SPR) to detect and measure 37binding interactions. In a typical Biacore experiment, one of the interacting molecules (ligand) is i38mmobilized on a flexible dextran matrix while the interacting partner (analyte) is allowed to fl39ow across that surface. A binding interaction results in an increase in mass on the sensor surface 40and a corresponding direct change in the refractive index of the medium in the vicinity of the 41sensor surface. Changes in refractive index or signal are recorded in resonance units (R.U.) Signal 42changes due to association and dissociation of complexes are monitored in a non-invasive manne43r, continuously and in real-time, the results of which are reported in the form of a sensorgram.44
(§3) The SPR assay is con45figured to examine solution inhibition of BCL-2 binding to peptide derivatized sensor surfa46ces to generate IC50 values as a measure of inhibitor potency.
(§4) Biacore™ A100 (GE Healthcare, Uppsala, Sweden) was used to conduct all experiments reported herein. Sensor surface preparation and all interaction analyses experiments were performed at 25° C. Reagents were purchased from GE Healthcare. Running buffer containing 10 mM Hepes, pH7.4, 150 mM sodium chloride, 1.25 mM Dithiothreitol, 3% Dimethyl sulfoxide and 0.05% polysorbate 20 were utilized throughout all analyses.
(§5) Biotinylated BAK, BAD and NOXA peptides were diluted to 10 nM in running buffer and captured onto a sensor surface pre-derivatized with streptavidin (sensor chip SA) to peptide surface densities in the range 50-100 R.U. Peptide captured surfaces were blocked with 500 μM PEO2-Biotin.
(§6) Interaction analyses were performed by first equilibrating each sample within a 6 point three fold compound dilution series in the range 16 μM to […] with 56 nM BCL-2 for one hour during instrument start-up procedures. Protein compound mixtures were then injected over each peptide surface in parallel for 60 seconds at a flow-rate of 30 μL/min. 56 nM BCL-2 control samples were also prepared and run at regular intervals during the assay. Surface regeneration was performed at the end of each analysis cycle by two 30 second injections of 10 mM Glycine, pH 2.5, 1M Sodium Chloride, 0.05% polysorbate 20. Samples and control compound samples were run in duplicate and controls are also run at regular intervals during the assay to monitor surface and assay performance.
(§7) Data analyses are carried out using Biacore™ A100 evaluation software v1.1 to validate assay quality. Binding level report points were used relative to BCL-2 control samples to calculate % inhibition values for each compound protein mixture. […] The range of data shown in table 1 represents the high and low IC50 values obtained from multiple experiments.
On the technique in general: Surface plasmon resonance follows binding to a sensor surface in real time, without labels.

Assay [2] addresses BCL-2 binding to BAK peptide (Homo sapiens, UniProt P10415). Kind of assay: BCL2 SPR solution inhibition assay, BAK peptide surface (Biacore A100). The following applies: read-out: BCL2_SPR IC50 BAK.
Text: as §1, §2, §3, §4, §5, §6, §7

Chain of BCL-2 binding to BAK peptide (P10415 whole entry): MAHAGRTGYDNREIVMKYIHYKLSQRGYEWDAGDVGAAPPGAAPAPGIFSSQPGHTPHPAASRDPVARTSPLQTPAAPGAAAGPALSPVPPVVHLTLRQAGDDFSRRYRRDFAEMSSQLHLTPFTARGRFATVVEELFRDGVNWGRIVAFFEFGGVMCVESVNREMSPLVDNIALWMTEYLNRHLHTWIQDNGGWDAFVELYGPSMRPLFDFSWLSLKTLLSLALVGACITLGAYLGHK
Chain of BCL-2 binding to BAD peptide (P10415 whole entry): as above

As a reminder, the IC50 is the concentration needed to halve the response being measured. `CCCCN(CCCC)C(=O)c1cc(C)n(-c2ccc(N3CCOCC3)cc2C(=O)N2Cc3ccccc3C[C@H]2CO)n1` [Example 1, (S)—N,N-dibutyl-1-(2-(3-(hydroxymethyl)-1,2,3,4-tetrahydroisoquinoline-2-carbonyl)-4-morpholinophenyl)-5-methyl-1H-pyrazole-3-carboxamide]: the IC50 lay in the range of 1400 to 1520 nM in assay [1] and 725 to 860 nM in assay [2].
Consider `CCCCN(CCCC)C(=O)c1cc(C)n(-c2ccc(N3CCN(c4ccccc4)CC3=O)cc2C(=O)N2Cc3ccccc3C[C@H]2CO)n1` [Example 2, (S)—N,N-dibutyl-1-(2-(3-(hydroxymethyl)-1,2,3,4-tetrahydroisoquinoline-2-carbonyl)-4-(2-oxo-4-phenylpiperazin-1-yl)phenyl)-5-methyl-1H-pyrazole-3-carboxamide], for which the figures for the IC50 in assay [1] and in assay [2] were 4360 to 4620 nM and 3150 to 3300 nM, respectively.
For `CCCCN(CCCC)C(=O)c1cc(C)n(-c2ccc(N3CCN(Cc4ccc(Cl)cc4)C(=O)C3)cc2C(=O)N2Cc3ccccc3C[C@H]2CO)n1` [Example 3, (S)—N,N-dibutyl-1-(4-(4-(4-chlorobenzyl)-3-oxopiperazin-1-yl)-2-(3-(hydroxymethyl)-1,2,3,4-tetrahydroisoquinoline-2-carbonyl)phenyl)-5-methyl-1H-pyrazole-3-carboxamide], the IC50 was 474 to 506 nM in assay [1] and 512 to 515 nM in assay [2].
Consider `CCCCN(CCCC)C(=O)c1cc(C)n(-c2ccc(-c3cccc(C(=O)O)c3)cc2C(=O)N2Cc3ccccc3C[C@H]2CO)n1` [Example 4, (S)-4′-(3-(dibutylcarbamoyl)-5-methyl-1H-pyrazol-1-yl)-3′-(3-(hydroxymethyl)-1,2,3,4-tetrahydroisoquinoline-2-carbonyl)-[1,1′-biphenyl]-3-carboxylic acid], for which the 50% inhibitory concentration (IC50) is 110 to 119 nM in assay [1] and 86.6 to 91 nM in assay [2].
With `CCCCN(CCCC)C(=O)c1nn(-c2ccc(-c3cccnc3)cc2C(=O)N2Cc3ccccc3C[C@H]2CO)c(C)c1Cl` [Example 5], the results for the IC50 in assay [1] and in assay [2] were 218 to 236 nM and 253 to 262 nM, respectively.
As for `CCCCN(CCCC)C(=O)c1nn(-c2ccc(-c3ccc(N)nc3)cc2C(=O)N2Cc3ccccc3C[C@H]2CO)c(C)c1Cl` [Example 6], the half-maximal inhibitory concentration (IC50) in assay [1] fell in the range of 231 to 288 nM; in assay [2], 210 to 252 nM.
The matching figures for `CCCCN(CCCC)C(=O)c1nn(-c2ccc(-c3cc[nH]n3)cc2C(=O)N2Cc3ccccc3C[C@H]2CO)c(C)c1Cl` [Example 7]: 739 to 770 nM and 609 to 613 nM.
Regarding `CCCCN(CCCC)C(=O)c1nn(-c2ccc(-c3ccc(N(C)C)nc3)cc2C(=O)N2Cc3ccccc3C[C@H]2CO)c(C)c1Cl` [Example 8], the half-maximal inhibitory concentration (IC50) fell in the range of 745 to 750 nM in assay [1] and 767 to 786 nM in assay [2].
The matching figures for `CCCCN(CCCC)C(=O)c1nn(-c2ccc(-c3ccncc3OC)cc2C(=O)N2Cc3ccccc3C[C@H]2CO)c(C)c1Cl` [Example 9]: 773 to 905 nM and 703 to 902 nM.
On to `CCCCN(CCCC)C(=O)c1nn(-c2ccc(-c3ccc(OC)nc3)cc2C(=O)N2Cc3ccccc3C[C@H]2CO)c(C)c1Cl` [Example 10], for which the IC50 in assay [1] is 843 to 958 nM; in assay [2], 790 to 906 nM.
With `CCCCN(CCCC)C(=O)c1nn(-c2ccc(-c3ccccc3)cc2C(=O)N2Cc3ccccc3C[C@H]2CO)c(C)c1Cl` [Example 11], the half-inhibitory concentration (IC50) in assay [1] is 1480 to 1580 nM; in assay [2], 1400 to 1490 nM.
`CCCCN(CCCC)C(=O)c1nn(-c2ccc(-c3cnn(Cc4ccccc4)c3)cc2C(=O)N2Cc3ccccc3C[C@H]2CO)c(C)c1Cl` [Example 12]: the values for the IC50 in assay [1] and in assay [2] were 127 to 148 nM and 103 to 115 nM, respectively.
The matching figures for `CCCCN(CCCC)C(=O)c1cc(C)n(-c2ccc(-c3ccc(C(=O)O)cc3)cc2C(=O)N2Cc3ccccc3C[C@H]2CO)n1` [Example 13]: 133 to 165 nM and 105 to 129 nM.
Turning to `CCCCN(CCCC)C(=O)c1nn(-c2ccc(-c3cn[nH]c3)cc2C(=O)N2Cc3ccccc3C[C@H]2CO)c(C)c1Cl` [Example 14], the IC50 is 277 to 315 nM in assay [1] and 189 to 213 nM in assay [2].
In the case of `CCCCN(CCCC)C(=O)c1cc(C)n(-c2ccc(N3CCN(c4ccccc4)CC3)cc2C(=O)N2Cc3ccccc3C[C@H]2CO)n1` [Example 15], the IC50 lay within 668 to 770 nM in assay [1] and 552 to 713 nM in assay [2].
For the molecule `CCCCN(CCCC)C(=O)c1cc(C)n(-c2ccc(N3CCN(C(=O)OC(C)(C)C)CC3=O)cc2C(=O)N2Cc3ccccc3C[C@H]2CO)n1` [Example 16], the IC50 in assay [1] was in the range of 2020 to 2210 nM; in assay [2] it was 1340 to 1450 nM.
In the case of `CCCCN(CCCC)C(=O)c1cc(C)n(-c2ccc(N3CCN(C)CC3)cc2C(=O)N2Cc3ccccc3C[C@H]2CO)n1` [Example 17], the half-maximal inhibitory concentration (IC50) in assay [1] was in the range of 2640 to 3050 nM; in assay [2], 1570 to 1640 nM.
In the case of `CCCCN(CCCC)C(=O)c1cc(C)n(-c2ccc(N3CCCCC3)cc2C(=O)N2Cc3ccccc3C[C@H]2CO)n1` [Example 18], the values for the IC50 in assay [1] and in assay [2] were 2360 to 2740 nM and 1650 to 1930 nM, respectively.
Consider `CCCCN(CCCC)C(=O)c1cc(C)n(-c2ccc(N3CCOCC3=O)cc2C(=O)N2Cc3ccccc3C[C@H]2CO)n1` [Example 19], for which the IC50 in assay [1] was 11200 to 12200 nM; in assay [2], 6060 to 6600 nM.
On to `CCCCN(CCCC)C(=O)c1cc(C)n(-c2ccc(N3CCN(Cc4ccccc4)C(=O)C3)cc2C(=O)N2Cc3ccccc3C[C@H]2CO)n1` [Example 20], for which the IC50 in assay [1] lay within 136 to 143 nM; in assay [2] it was 119 to 137 nM.
As to `CCCCN(CCCC)C(=O)c1cc(C)n(-c2ccc(N3CCN(Cc4ccccc4Cl)C(=O)C3)cc2C(=O)N2Cc3ccccc3C[C@H]2CO)n1` [Example 21], the IC50 was in the range of 180 to 202 nM in assay [1] and 179 to 190 nM in assay [2].
`CCCCN(CCCC)C(=O)c1cc(C)n(-c2ccc(N3CCN(Cc4ccccc4)CC3)cc2C(=O)N2Cc3ccccc3C[C@H]2CO)n1` [Example 22]: the results for the IC50 in assay [1] and in assay [2] were 202 to 231 nM and 220 to 272 nM, respectively.
Turning to `CCCCN(CCCC)C(=O)c1cc(C)n(-c2ccc(N3CCN(Cc4cccc(Cl)c4)C(=O)C3)cc2C(=O)N2Cc3ccccc3C[C@H]2CO)n1` [Example 23], the IC50 in assay [1] was 162 nM; in assay [2], 148 to 155 nM.
As to `CCCCN(CCCC)C(=O)c1cc(C)n(-c2ccc(-c3ccccc3F)cc2C(=O)N2Cc3ccccc3C[C@H]2CO)n1` [Example 24], the values for the IC50 in assay [1] and in assay [2] were 3010 to 3410 nM and 3360 to 4630 nM, respectively.
On to `CCCCN(CCCC)C(=O)c1cc(C)n(-c2ccc(-c3ccc(C(=O)N4CCCC4)c(F)c3)cc2C(=O)N2Cc3ccccc3C[C@H]2CO)n1` [Example 25], for which the IC50 is 223 to 224 nM in assay [1] and 159 to 171 nM in assay [2].
The matching figures for `CCCCN(CCCC)C(=O)c1cc(C)n(-c2ccc(-c3ccc(S(=O)(=O)N4CCCCC4)cc3)cc2C(=O)N2Cc3ccccc3C[C@H]2CO)n1` [Example 26]: 584 to 672 nM and 437 to 484 nM.
The matching figures for `CCCCN(CCCC)C(=O)c1cc(C)n(-c2ccc(-c3cccc(Cl)c3)cc2C(=O)N2Cc3ccccc3C[C@H]2CO)n1` [Example 27]: 744 to 783 nM and 520 to 599 nM.
The matching figures for `CCCCN(CCCC)C(=O)c1cc(C)n(-c2ccc(-c3ccc(F)c(C)c3)cc2C(=O)N2Cc3ccccc3C[C@H]2CO)n1` [Example 28]: 919 to 1070 nM and 802 to 913 nM.
Consider `CCCCN(CCCC)C(=O)c1cc(C)n(-c2ccc(-c3ccc(OC)c(C)c3)cc2C(=O)N2Cc3ccccc3C[C@H]2CO)n1` [Example 29], for which the concentration for half-maximal inhibition (IC50) was 767 to 820 nM in assay [1] and 563 to 621 nM in assay [2].
Regarding `CCCCN(CCCC)C(=O)c1cc(C)n(-c2ccc(-c3ccc(OC)c(Cl)c3)cc2C(=O)N2Cc3ccccc3C[C@H]2CO)n1` [Example 30], the values for the IC50 in assay [1] and in assay [2] were 651 to 676 nM and 510 to 591 nM, respectively.
For `CCCCN(CCCC)C(=O)c1cc(C)n(-c2ccc(-c3cnc4ccccc4c3)cc2C(=O)N2Cc3ccccc3C[C@H]2CO)n1` [Example 31], the half-maximal inhibitory concentration (IC50) lay within 177 to 178 nM in assay [1] and 140 to 142 nM in assay [2].
As for `CCCCN(CCCC)C(=O)c1cc(C)n(-c2ccc(-c3ccc(F)c(C#N)c3)cc2C(=O)N2Cc3ccccc3C[C@H]2CO)n1` [Example 32], the values for the IC50 in assay [1] and in assay [2] were 410 to 465 nM and 359 to 375 nM, respectively.
Regarding `CCCCN(CCCC)C(=O)c1cc(C)n(-c2ccc(-c3ccc(NC(C)=O)cc3)cc2C(=O)N2Cc3ccccc3C[C@H]2CO)n1` [Example 33], the IC50 in assay [1] was 455 to 553 nM; in assay [2] it was 339 to 434 nM.
